Literature values in patent publication US20080146534A1, “PHARMACEUTICAL COMPOSITION FOR REDUCING THE RISKS ASSOCIATED WITH CARDIOVASCULAR AND CEREBROVASCULAR DISEASES” (priority 2006, published 2008).

Settings: at clinical doses

Structure (SMILES): O=C1CCc2cc(OCCCCc3nnnn3C3CCCCC3)ccc2N1 [Cilostazol, 6-[4-(1-cyclohexyl-1H-tetrazol-5-yl)butoxy]-3,4-dihydro-2(1H)-quinolinon]
- increase in heart rate: about 7 beats/minute
- ventricular premature beat (VPB) rate (small increase from 1/hour): 4 h⁻¹
